The term IC50 denotes the concentration needed to halve the response being measured. Broadly, the MIC is the lowest concentration found to suppress growth. A word on the ED50: it is the dose at which the effect has come halfway, by size or by number of responders.

Assay [1] has as its target E. coli RNA polymerase σ70 holoenzyme (Escherichia coli (strain K12), UniProt P0A8T7+P0A8V2). Nature of the assay: Fluorescence-detected assay of inhibition of Escherichia coli RNA polymerase. The settings on record: T4 N25 promoter DNA, RiboGreen fluorescence, read-out: RNAP-inhibitory activity E. coli RNAP IC50. It is filed as biochemical. The procedure: (§1) Fluorescence-detected RNA polymerase assays with E. coli RNA polymerase were performed by a modification of the procedure of Kuhlman et al., 2004 [Kuhlman, P., Duff, H. & Galant, A. (2004) A fluorescence-based assay for multisubunit DNA-dependent RNA polymerases. Anal. Biochem. 324, 183-190]. Reaction mixtures contained […]: […] test salt, 75 nM E. coli RNA polymerase σ^70 holoenzyme, 20 nM 384 bp DNA fragment containing the bacteriophage T4 N25 promoter, 100 μM ATP, 100 μM GTP, 100 μM UTP, 100 μM CTP, 50 mM Tris-HCl, pH 8.0, 100 mM KCl, 10 mM MgCl2, 1 mM DTT, 10 μg/ml bovine serum albumin, and 5.5% glycerol. Reaction components other than DNA and NTPs were pre-incubated for 10 min at 37° C. Reactions were carried out by addition of DNA and incubation for 5 min at 37° C., followed by addition of NTPs and incubation for 60 min at 37° C. DNA was removed by addition of 1 μl 5 mM CaCl2 and 2 U DNaseI (Ambion, Inc.), followed by incubation for 90 min at 37° C. RNA was quantified by addition of 100 μI RiboGreen RNA Quantitation Reagent (Invitrogen, Inc.; 1:500 dilution in Tris-HCl, pH 8.0, 1 mM EDTA), followed by incubation for 10 min at 25° C., followed by measurement of fluorescence intensity [excitation wavelength=485 nm and emission wavelength=535 nm; QuantaMaster QM1 spectrofluorometer (PTI, Inc.)]. IC50 is defined as the concentration of inhibitor resulting in 50% inhibition of RNA polymerase activity.

Assay [2] addresses S. aureus RNA polymerase core enzyme + S. aureus σA (Staphylococcus aureus (strain NCTC 8325 / PS 47), UniProt P47768+Q2G0N5). The assay is described as follows: Fluorescence-detected assay of inhibition of Staphylococcus aureus RNA polymerase. It is filed as biochemical. Particulars: T4 N25 promoter DNA, RiboGreen fluorescence, read-out: RNAP-inhibitory activity S. aureus RNAP IC50. The procedure: as §1
Fluorescence-detected RNA polymerase assays with S. aureus RNA polymerase were performed as in Example 2.1, using reaction mixtures containing (20 μl): 0-100 nM test salt, 75 nM S. aureus RNA polymerase core enzyme, 300 nM S. aureus σ^A, 20 nM 384 bp DNA fragment containing the bacteriophage T4 N25 promoter, 100 μM ATP, 100 μM GTP, 100 μM UTP, 100 μM CTP, 40 mM Tris-HCl, pH 8.0, 80 mM NaCl, 5 mM MgCl2, 2.5 mM DTT, and 12.7% glycerol. IC50 is defined as the concentration of inhibitor resulting in 50% inhibition of RNA polymerase activity.

For assay [3], the system named is Staphylococcus aureus ATCC 12600. Nature of the assay: Inhibition of growth of Staphylococcus aureus (spiral gradient endpoint MIC assay). The class given is cell-based. The settings on record: ATCC12600, Mueller-Hinton II cation-adjusted agar, 16 h at 37° C., read-out: in vitro antibacterial activity S. aureus ATCC12600 MIC. An excerpt: Minimum inhibitory concentrations (MICs for Staphylococcus aureus ATCC 12600 were quantified using spiral gradient endpoint assays, essentially as described [Wallace, A. and Corkill, J. (1989) Application of the spiral plating method to study antimicrobial action. J. Microbiol. Meths. 10, 303-310; Paton, J., Holt, A., and Bywater, M. (1990) Measurement of MICs of antibacterial agents by spiral gradient endpoint compared with conventional dilution methods. Int. I Exp. Clin. Chemother. 3, 31-38; Schalkowsky S. (1994) Measures of susceptibility from a spiral gradient of drug concentrations. Adv. Exp. Med. Biol. 349, 107-120]. Assays employed exponential-gradient plates containing 150 mm×4 mm Mueller-Hinton II cation-adjusted agar and 0.4-100 μg/ml of test salt. Plates were prepared using an Autoplate 4000 spiral plater (Spiral Biotech, Inc.). Saturated overnight cultures were swabbed radially onto plates, and plates were incubated for 16 h at 37° C. For each culture, the streak length was measured using a clear plastic template (Spiral Biotech, Inc.), the test-salt concentration at the streak endpoint was calculated using the program SGE (Spiral Biotech, Inc.), and the MIC was defined as the calculated test-salt concentration at the streak endpoint.

Assay [4] deals with methicillin-resistant Staphylococcus aureus (MRSA) strain BAA-1707 (USA-400, MW2). The assay is described as follows: Antibacterial efficacy in mouse model of Staphylococcus aureus systemic infection (peritonitis model). The settings on record: female Swiss Webster mice, intravenous injection 0 h post-infection, dose resulting in 50% survival at 72 h (probit), read-out: in vivo antibacterial activity mouse MRSA peritonitis ED50. On the procedure:
Female Swiss Webster mice ([…]) were experimentally infected by intraperitoneal administration of 1×10^7 colony forming units of methicillin-resistant Staphylococcus aureus (MRSA) strain BAA-1707 (USA-400, MW2) in 5% hog gastric mucin. Test compounds in vehicle (5% dimethylacetamide and 4% cremophor EL in 10 mM sodium phosphate, pH 8), positive control (linezolid in vehicle), and negative control (vehicle only), were administered by intravenous injection into a tail vein (200 μl) 0 h post-infection. Identities of test compounds and controls were blinded from personnel performing injections and monitoring survival. The protective dose 50 (PD50) was defined as the test-compound dose resulting in 50% survival at 72 h (calculated using the probit method).

Structures are written as SMILES. In brackets after ≈: the same amount, converted by molar mass.

Turning to `O=C(NCCc1ccc(Oc2ccccc2)cc1)c1c(O)cc(O)cc1O` [Compound 0MTK148, 2,4,6-trihydroxy-N-(4-phenoxyphenethyl)benzamide], the figures for the IC50 in assay [1] and in assay [2] were 800 nM and 3.9 µM, respectively. In addition, the MIC in assay [3] came out at 19 µg/mL (≈ 52 µM). Also, in assay [4], the 50% effective dose (ED50) turned out to be 2.5 mg/kg.
`O=C(NCCc1ccc(Oc2cc(Cl)cc(Cl)c2)cc1)c1c(O)cc(O)c(Cl)c1O` [Compound 0MTK237, 3-chloro-N-(4-(3,5-dichlorophenoxy)phenethyl)-2,4,6-trihydroxybenzamide]: the IC50 in assay [1] was found to be 310 nM; in assay [2], 3 µM. In addition, the minimum inhibitory concentration (MIC) in assay [3] is 15 µg/mL (≈ 32 µM).
As for `O=C(NCCc1ccc(Oc2cc(Cl)cc(Cl)c2)cc1)c1c(O)c(Cl)c(O)c(Cl)c1O` [Compound 0MTK238, 3,5-dichloro-N-(4-(3,5-dichlorophenoxy)phenethyl)-2,4,6-trihydroxybenzamide], the IC50 was 770 nM in assay [1] and 3 µM in assay [2]. Also, the MIC in assay [3] amounted to 3.2 µg/mL (≈ 6.36 µM).
Regarding `O=C(NCCc1ccc(Oc2ccc(F)cc2)cc1)c1c(O)cc(O)c(Cl)c1O` [Compound 0MTK240, 3-chloro-N-(4-(4-fluorophenoxy)phenethyl)-2,4,6-trihydroxybenzamide], the IC50 was 2100 nM in assay [1] and 15 µM in assay [2]. Also, in assay [3], the minimum inhibitory concentration (MIC) is > 40 µg/mL.
`O=C(NCCc1ccc(Oc2cccc(Cl)c2)cc1)c1c(O)cc(O)cc1O` [Compound 0MTK256, N-(4-(3-chlorophenoxy)phenethyl)-2,4,6-trihydroxybenzamide]: the IC50 was determined as 650 nM in assay [1] and 10 µM in assay [2]. In addition, in assay [3], the MIC came out at 9.1 µg/mL (≈ 22.8 µM).
As to `Cc1ccc(Oc2ccc(CCNC(=O)c3c(O)cc(O)cc3O)cc2)cc1` [Compound 0MTK257, 2,4,6-trihydroxy-N-(4-(p-tolyloxy)phenethyl)benzamide], the IC50 in assay [1] turned out to be 800 nM; in assay [2], 11 µM. Besides, in assay [3], the MIC was 20 µg/mL (≈ 52.7 µM).
Take `CCC1=C(O)C(CC)(CC)C(=O)C(C(=O)NCCc2ccc(Oc3ccc(F)cc3)cc2)=C1O` [Compound 3RKHTK161, 3,5,5-triethyl-N-(4-(4-fluorophenoxy)phenethyl)-2,4-dihydroxy-6-oxocyclohexa-1,3-dienecarboxamide]: the results for the IC50 in assay [1] and in assay [2] were 3300 nM and 13 µM, respectively. Also, the MIC in assay [3] was determined as 2.8 µg/mL (≈ 5.99 µM).

The record behind these values is patent publication US11572337B2, “Antibacterial agents: arylalkylcarboxamido phloroglucinols” (Rutgers, The State University of New Jersey, priority 2018, dated 2023).
